Data on one compound can be found in US10875861B1, “Therapeutic compounds” (Rutgers, The State University of New Jersey, priority 2017, dated 2020).

This experiment concerns BMI-1 protein. In words: Inhibition of BMI-1 protein levels in U87 cells (Western blotting). The conditions noted are these: U87 cells, 72 hours, different concentrations. It is filed as cell-based. As to the method:
U87 cells were treated with DMSO or different concentrations of compound B1 for 72 hours. Cells were lysed in Cell Lysis Buffer (Cell Signaling, #9803) supplemented with Protease Inhibitor Cocktail (Sigma, #P8340), sonicated briefly while on ice and spun down for 30 minutes at 4° C., after which the supernatant was collected. For each sample, 2 uL of lysate was mixed well into 198 uL de-ionized water. Next, 10 uL of this diluted sample was added to a well in a 96 well plate in quadruplets and mixed with Protein Assay Dye Reagent Concentrate (Bio-Rad, #500-0006) (which was diluted 1:5 with water). BSA standards of 25 ng, 50 ng, 100 ng, 200 ng and 250 ng were also used to the plate and mixed with the reagent. The plate was read in a plate reader at 600 nm and samples were calibrated to the standards to determine the concentration of protein. Using the NuPAGE system (Invitrogen), 25 ug of protein was mixed with NuPAGE LDS 4× Sample Buffer (#NP0007), NuPAGE 10× Reducing Agent (#NP0004) and water, mixed well and heated at 96° C. for 15 minutes to denature the protein. […] Protein signals were detected using ECL Western Blotting Substrate (Pierce, #32106) and filmed.
U87 cells were treated with DMSO or different concentrations of the inhibitors for 72 hours. […] The plate was read in a plate reader at 600 nm and samples were calibrated to the standards to determine the concentration of protein. […]
On the technique in general: In western blotting, separated proteins are transferred to a membrane and probed.

As to `COc1ccc(Nc2nc(-c3nc4ncccn4c3C)cs2)cc1` [Example B1, N-(4-methoxyphenyl)-4-(3-methylimidazo[1,2-a]pyrimidin-2-yl)thiazol-2-amine], the “BMI-1 protein levels in U87 cells (Test C)” value is given as “inhibition of BMI-1 protein levels”.
